According to PubChem BioAssay AID2060898 (Molecular Pharmacology Branch, DTP, NCI, 2025):

Tested on: 616215-338-R-J1-PDC complex spheroid viability
Experiment: Anticancer human tumor 616215-338-R-J1-PDC patient-derived colon adenocarcinoma cell line growth inhibition [RAS]
Details: for IC50: curve of first compound; for viability, T/C: stronger effect = lower value
How it was run: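 Tumour cells grown as complex spheroids with HUVEC endothelial cells and mesenchymal stem cells, treated with RAS pathway inhibitor combinations. Each agent spans half-log steps from near clinical Cmax, or 10 microM where Cmax is unknown.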

[1] = second compound 0.000949 µM, first compound 0.0316 µM
[2] = second compound 0.000949 µM, first compound 0.1 µM
[3] = second compound 0.000949 µM, first compound 0.316 µM
[4] = second compound 0.000949 µM, first compound 1 µM
[5] = second compound 0.003 µM, first compound 0.0316 µM
[6] = second compound 0.003 µM, first compound 0.1 µM
[7] = second compound 0.003 µM, first compound 0.316 µM
[8] = second compound 0.003 µM, first compound 1 µM
[9] = second compound 0.00949 µM, first compound 0.0316 µM
[10] = second compound 0.00949 µM, first compound 0.1 µM
[11] = second compound 0.00949 µM, first compound 0.316 µM
[12] = second compound 0.00949 µM, first compound 1 µM
[13] = second compound 0.03 µM, first compound 0.0316 µM
[14] = second compound 0.03 µM, first compound 0.1 µM
[15] = second compound 0.03 µM, first compound 0.316 µM
[16] = second compound 0.03 µM, first compound 1 µM
[17] = second compound 0.0949 µM, first compound 0.0316 µM
[18] = second compound 0.0949 µM, first compound 0.1 µM
[19] = second compound 0.0949 µM, first compound 0.316 µM
[20] = second compound 0.0949 µM, first compound 1 µM
[21] = second compound 0.3 µM, first compound 0.0316 µM
[22] = second compound 0.3 µM, first compound 0.1 µM
[23] = second compound 0.3 µM, first compound 0.316 µM
[24] = second compound 0.3 µM, first compound 1 µM
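Also: spheroids exposed to agents for seven days before viability readout.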
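For viability, T/C in this document: 100% = DMSO vehicle control viability.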

SMILES: CCN1CCN(Cc2ccc(Nc3ncc(F)c(-c4cc(F)c5nc(C)n(C(C)C)c5c4)n3)nc2)CC1 + CCn1c(-c2cccnc2C(C)OC)c2c3cc(ccc31)N1CCOC(CC(NC(=O)C(C(C)C)N(C)C(=O)C3(F)CCN(C(=O)C#CC(C)(C)N(C)C)CC3)C(=O)N3CCCC(N3)C(=O)OCC(C)(C)C2)C1
- IC50 (second compound 0.000949 µM): > 1 µM
- IC50 (second compound 0.003 µM): > 1 µM
- IC50 (second compound 0.00949 µM): > 1 µM
- IC50 (second compound 0.03 µM): > 1 µM
- IC50 (second compound 0.0949 µM): > 1 µM
- IC50 (second compound 0.3 µM): 0.93 µM
- viability, T/C (second compound 0.000949 µM, first compound 0.00316 µM): 104%
- viability, T/C (second compound 0.000949 µM, first compound 0.01 µM): 103%
- viability, T/C [1]: 104%
- viability, T/C [2]: 122%
- viability, T/C [3]: 144%
- viability, T/C [4]: 66.5%
- viability, T/C (second compound 0.003 µM, first compound 0.00316 µM): 102%
- viability, T/C (second compound 0.003 µM, first compound 0.01 µM): 103%
- viability, T/C [5]: 105%
- viability, T/C [6]: 121%
- viability, T/C [7]: 141%
- viability, T/C [8]: 59.2%
- viability, T/C (second compound 0.00949 µM, first compound 0.00316 µM): 102%
- viability, T/C (second compound 0.00949 µM, first compound 0.01 µM): 104%
- viability, T/C [9]: 108%
- viability, T/C [10]: 128%
- viability, T/C [11]: 134%
- viability, T/C [12]: 56.8%
- viability, T/C (second compound 0.03 µM, first compound 0.00316 µM): 110%
- viability, T/C (second compound 0.03 µM, first compound 0.01 µM): 105%
- viability, T/C [13]: 118%
- viability, T/C [14]: 122%
- viability, T/C [15]: 143%
- viability, T/C [16]: 67.1%
- viability, T/C (second compound 0.0949 µM, first compound 0.00316 µM): 109%
- viability, T/C (second compound 0.0949 µM, first compound 0.01 µM): 113%
- viability, T/C [17]: 116%
- viability, T/C [18]: 121%
- viability, T/C [19]: 129%
- viability, T/C [20]: 50%
- viability, T/C (second compound 0.3 µM, first compound 0.00316 µM): 117%
- viability, T/C (second compound 0.3 µM, first compound 0.01 µM): 104%
- viability, T/C [21]: 113%
- viability, T/C [22]: 116%
- viability, T/C [23]: 108%
- viability, T/C [24]: 46%

SMILES: CCC(CC)c1cc(NC2CCC(N)C2)n2nccc2n1 (centres undefined) + CCn1c(-c2cc(N3CCN(C)CC3)cnc2C(C)OC)c2c3cc(ccc31)-c1csc(n1)CC(NC(=O)C1CC1C)C(=O)N1CCCC(N1)C(=O)OCC(C)(C)C2
- IC50 (second compound 0.000949 µM): 1.83 µM
- IC50 (second compound 0.003 µM): 1.88 µM
- IC50 (second compound 0.00949 µM): 1.59 µM
- IC50 (second compound 0.03 µM): 1.13 µM
- IC50 (second compound 0.0949 µM): < 0.0316 µM
- IC50 (second compound 0.3 µM): < 0.0316 µM
- viability, T/C [1]: 122%
- viability, T/C [2]: 113%
- viability, T/C [3]: 95%
- viability, T/C [4]: 105%
- viability, T/C (second compound 0.000949 µM, first compound 3.16 µM): 0.4%
- viability, T/C (second compound 0.000949 µM, first compound 10 µM): 0.24%
- viability, T/C [5]: 109%
- viability, T/C [6]: 108%
- viability, T/C [7]: 116%
- viability, T/C [8]: 110%
- viability, T/C (second compound 0.003 µM, first compound 3.16 µM): 0.37%
- viability, T/C (second compound 0.003 µM, first compound 10 µM): 0.22%
- viability, T/C [9]: 80.7%
- viability, T/C [10]: 92.2%
- viability, T/C [11]: 72.6%
- viability, T/C [12]: 88.4%
- viability, T/C (second compound 0.00949 µM, first compound 3.16 µM): 0.29%
- viability, T/C (second compound 0.00949 µM, first compound 10 µM): 0.22%
- viability, T/C [13]: 50.2%
- viability, T/C [14]: 55.3%
- viability, T/C [15]: 56.5%
- viability, T/C [16]: 62.5%
- viability, T/C (second compound 0.03 µM, first compound 3.16 µM): 0.28%
- viability, T/C (second compound 0.03 µM, first compound 10 µM): 0.2%
- viability, T/C [17]: 41.6%
- viability, T/C [18]: 39.9%
- viability, T/C [19]: 51.1%
- viability, T/C [20]: 49.3%
- viability, T/C (second compound 0.0949 µM, first compound 3.16 µM): 0.28%
- viability, T/C (second compound 0.0949 µM, first compound 10 µM): 0.23%
- viability, T/C [21]: 30.5%
- viability, T/C [22]: 38.5%
- viability, T/C [23]: 45.7%
- viability, T/C [24]: 47.9%
- viability, T/C (second compound 0.3 µM, first compound 3.16 µM): 0.33%
- viability, T/C (second compound 0.3 µM, first compound 10 µM): 0.27%
